These results are taken from patent US20120172228A1, “ALCOHOL ALKOXYLATES AS ADJUVANTS FOR AGROCHEMICAL FORMULATIONS” (SYNGENTA CROP PROTECTION, LLC, priority 2009, published 2012).

Assay type in all cases: in vivo
Experiment [1] deals with chenopodium album (CHEAL), digitaria sanguinalis (DIGSA), setaria viridis (SETVI), abutilon theophrasti (ABUTH). Description: Adjuvant with herbicide nicosulfuron, track sprayer, mean across four weed species. How it is done:
(§1) In this example Sample 13 from Table 1 was compared to the oil adjuvant blend Turbocharge™. The herbicide fomesafen was applied to the weed species xanthium strumarium (XANST), setaria viridis (SETVI), abutilon theophrasti (ABUTH), and chenopodium album (CHEAL) at rates of 60 or 120 grams per hectare, using a laboratory track sprayer. Each experiment was replicated four times and the percentage damage to the weeds was assessed visually at time periods of 7, 14 and 21 days after application. Each adjuvant was applied at a rate of 0.5% of the volume of the spray water. Four effects were evaluated: pesticide rate (2 levels), adjuvant type (two levels), weed species (four levels) and days after application (three levels). A standard simple linear model was constructed to judge the significance of these effects. […] The effect of each adjuvant was pulled out from the model and the least significant differences evaluated using a Student's t method. […]
(§2) In this example the butylene oxide adjuvant Sample 13 of Table 1 was compared to the commercial oil adjuvant blend Atplus™411F. […] Each experiment was replicated four times and the percentage damage to the weeds was assessed visually at time periods of 14 and 21 days after application. […]
In this example the rate response of the butylene oxide adjuvant Sample 13 of Table 1 was measured and compared to the adjuvant TEHP. […]

For a further experiment, the system named is lolium perenne (LOLPE). Description: Adjuvant with herbicide pinoxaden on LOLPE. To be noted: 14 and 21 days. The procedure: In this example the response of the butylene oxide adjuvant 13 of Table 1 was measured at an application rate of 0.2% of the volume of the spray solution used. It was compared to the adjuvant tris 2-ethylhexyl phosphate [TEHP], which was applied at the higher rate of 0.5% by volume. The herbicide pinoxaden was applied at rates of 7.5, 11.25 or 15 grams per hectare by a laboratory track sprayer to the weed species lolium perenne (LOLPE), alopecurius myosuirides (ALOMY), and avena fatua (AVEFA). In each case the experiments were replicated four times and the percentage damage to the weeds was assessed visually at time periods of 14 and 21 days after application.

Experiment [2] concerns alopecurius myosuirides (ALOMY). The experiment in a line: Adjuvant with herbicide pinoxaden on ALOMY. To be noted: 14 and 21 days. How it is done:
as §1, with “levels).” for “levels). A standard simple linear model was constructed to judge the significance of these effects.”
(§3) In this example the responses of the adjuvants 13, 17, 19, 21, 22 and 23 were measured at an application rate of 0.2% of the volume of the spray solution used. […] In each case the experiments were replicated four times and the percentage damage to the weeds was assessed visually at time periods of 14 and 21 days after application.
(§4) In this example the response of butylene oxide sample 27 of Table 1 was measured at an application rate of 0.2% of the volume of the spray solution used. […]

The subject of experiment [3] is chenopodium album (CHEAL). The experiment in a line: Adjuvant with herbicide nicosulfuron on CHEAL. The note with it: nicosulfuron 30 or 60 g/ha; adjuvants 0.2% of spray water; 14 and 21 days after application. How it is done:
as §1, with “levels).” for “levels). A standard simple linear model was constructed to judge the significance of these effects.”
as §2
(§5) In this example the responses of the butylene oxide adjuvants 13, 17, 19, 21, 22 and 23 of Table 1 were measured at an application rate of 0.2% of the volume of the spray solution used. […]

Another experiment relates to avena fatua (AVEFA). Description: Adjuvant with herbicide pinoxaden on AVEFA. The note with it: 14 and 21 days. The procedure:
as §1, with “levels).” for “levels). A standard simple linear model was constructed to judge the significance of these effects.”
as §3, §4

The subject of experiment [4] is abutilon theophrasti (ABUTH). The experiment in a line: Adjuvant with herbicide nicosulfuron on ABUTH. The note with it: nicosulfuron 30 or 60 g/ha; adjuvants 0.2% of spray water; 14 and 21 days after application. The procedure: as §1, with “levels).” for “levels). A standard simple linear model was constructed to judge the significance of these effects.”
as §2, §5

[5] abbreviates: pinoxaden 7.5, 11.25 or 15 g/ha, Sample 13 0.2%, TEHP 0.5%.
Setting [6] is: pinoxaden 7.5 or 15 g/ha, butylene oxide adjuvants 0.2%, TEHP 0.5% v/v.

For `CCCCC(CC)COP(=O)(OCC(CC)CCCC)OCC(CC)CCCC` (stereo not shown) [TEHP, tris 2-ethylhexyl phosphate], the “mean efficacy (percentage damage to the weeds), All weeds” value in experiment [1] (nicosulfuron 30 or 60 g/ha, adjuvants 0.2% of spray water, 14 and 21 days after application) is 58.12; B %. In addition, the Mean % kill in experiment [1] (nicosulfuron 30 to 60 g/ha, adjuvant rate 0.2% w/v, across four weed species, 14 and 21 days) is reported as 58.12%. The “mean efficacy (percentage damage to the weeds), LOLPE” value in the experiment with lolium perenne (LOLPE) (setting [5]) was 58.06; A %; with lolium perenne (LOLPE) (setting [6]), 82.5; A %. Moreover, the “mean efficacy (percentage damage to the weeds), ALOMY” value in experiment [2] (setting [5]) is 43.33; A %; in experiment [2] (setting [6]) it was 68.75; AB %. In experiment [3], the “mean efficacy (percentage damage to the weeds), CHEAL” value is recorded as 68.33; B %. Moreover, the “mean efficacy (percentage damage to the weeds), AVEFA” value in the experiment on avena fatua (AVEFA) (setting [5]) is given as 78.33; A %; in the experiment with avena fatua (AVEFA) (setting [6]), 73.75; AB %. In addition, in experiment [4], the “mean efficacy (percentage damage to the weeds), ABUTH” value is 17.92; B %.
